Assay results as given in article PMC6445171 (Journal of Enzyme Inhibition and Medicinal Chemistry, 2017).
Values after ≈ are worked out from the molar mass of the structure shown. Read-outs that look alike come from different tables or passages of the source. Each block holds one compound with its values, some of them ahead of it.

How the values were obtained:
[1] = physchem; details: pH 7.4, aqueous buffer
[2] = cited from earlier work

Solubility [1]: 28 µM (≈ 5.61 µg/mL)
SMILES: Nc1ccc2oc(-c3ccco3)nc2c1 [Compound D1, 2-(Furan-2-yl)-1,3-benzoxazol-5-amine]

SMILES: CCn1c(=O)c2c(nc(/C=C/c3ccc(OC)c(OC)c3)n2C)n(CC)c1=O [Istradefylline]
Solubility ([2]; reference antagonists): 1.5 µM (≈ 0.577 µg/mL)

SMILES: COCCOc1ccc(N2CCN(CCn3ncc4c3nc(N)n3nc(-c5ccco5)nc43)CC2)cc1 [Preladenant]
Solubility ([2]; reference antagonist): 0.02 µM (≈ 0.0101 µg/mL)
